The results in this text go back to EP0306300B1, “Pyrrolo(1,2-a)imidazole and imidazo(1,2-a)pyridine derivatives and their use as 5-lipoxygenase pathway inhibitors” (SMITHKLINE BEECHAM CORPORATION, priority 1987, dated 1989).

Like-named read-outs stand apart in the source and are kept apart here.

Series [1] can be described thus: Log D determination by high pressure liquid chromatography. In kind it is physicochemical. Conditions: hplc ods, mobile phase MeOH:H2O, pH 7.4, read-out: (Log D) (Lipophilicity). On the procedure: The procedure used to determine the log D's listed on Table VI was as follows. A 20 »l sample was injected into a Shandon Hypersil ODS, 5» (100 mm x 4.6 mm ID) column and was eluted using a mobile phase of […] MeOH:H₂O (The aqueous portion was .01 M in KH₂PO₄ and adjusted to pH 7.4 with KOH after mixing the MeOH), at a flow rate of 2 ml per minute. Eluting peaks were detected by UV absorbance at […]. All samples were made up at 0.1 mg/ml. (Retentions were identical at 0.01 mg/ml.)
The data was analyzed by determining the regression line corresponding to the log k′ vs. literature log P of the reference standards.
The reference standards and their literature log P's included NaNO₂, 0.0; acetanalide, 1.16; acetophenone, 1.66; anisole, 2.08; chlorobenzene, 2.84; benzophenone, 3.18; anthracene, 4.45; and pentachlorobenzene, 5.12.

Series [2] deals with T1, 5-Lipoxygenase (Rattus norvegicus, UniProt P12527).
T1 construct: the supernatant was centrifuged at 100,000 x g for 60 min; host or cells: RBL-1 cells (soluble cell extract, high-speed supernatant)
T1 sequence (P12527 1-673): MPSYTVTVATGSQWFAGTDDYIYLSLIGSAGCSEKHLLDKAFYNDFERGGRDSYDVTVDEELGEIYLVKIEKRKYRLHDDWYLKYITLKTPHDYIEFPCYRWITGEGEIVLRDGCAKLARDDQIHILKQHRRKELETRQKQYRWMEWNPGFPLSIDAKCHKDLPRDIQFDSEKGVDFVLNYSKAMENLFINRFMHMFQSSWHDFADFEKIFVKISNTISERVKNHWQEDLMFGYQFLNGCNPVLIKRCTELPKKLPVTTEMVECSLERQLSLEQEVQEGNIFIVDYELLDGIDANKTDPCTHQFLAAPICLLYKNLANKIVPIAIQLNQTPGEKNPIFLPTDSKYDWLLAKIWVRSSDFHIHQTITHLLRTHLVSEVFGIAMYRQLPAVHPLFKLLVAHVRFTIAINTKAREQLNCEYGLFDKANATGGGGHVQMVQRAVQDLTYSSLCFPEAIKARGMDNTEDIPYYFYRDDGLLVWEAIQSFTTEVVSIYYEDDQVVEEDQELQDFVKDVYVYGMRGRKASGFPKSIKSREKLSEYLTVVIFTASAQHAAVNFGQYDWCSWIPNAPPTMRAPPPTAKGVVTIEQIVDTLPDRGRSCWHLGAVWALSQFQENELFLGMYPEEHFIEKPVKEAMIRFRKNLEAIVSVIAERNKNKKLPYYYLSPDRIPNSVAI
As to the kind of experiment: Assay of 5-lipoxygenase activity in RBL-1 high speed supernatant. In kind it is biochemical. Conditions: read-out: 5-LO IC50. On the procedure: For in vitro experiments, compounds were dissolved at appropriate concentrations in ethanol (final concentration 1.0%) and then diluted to final concentrations using the buffers indicated in the text.
The activities of these enzymes in extracts of RBL-1 cells were assayed using the method of Jakschik and Lee, Nature, 287, 51-52 (1980). RBL-1 cells were obtained from the American Type Culture Collection (#CRL 1378) and were grown at 37°C (5% CO₂ in air) in spinner culture in MEM supplemented with 10% heat inactivated fetal calf serum. Harvested cells were washed with 50 mM sodium phosphate buffer, pH 7.0, containing 1 mM EDTA and 0.1% gelatin, resuspended in fresh buffer (5 x 10⁷ cells/ml) and disrupted by nitrogen cavitation using the Parr bomb at 750 psi for 10 min. The broken cell extract was then centrifuged at 10,000 x g for 20 minutes (min) and the supernatant was centrifuged at 100,000 x g for 60 min. Aliquots (0.25 mls) of the supernatant were preincubated with or without drugs for 10 min, after which 10 ul CaCl₂ (2 mM) was added and the reaction was initiated with 2.5 »l of 2.5 mM arachidonic acid-1-¹⁴C (final concentration was 25 »M; specific activity 20,000 dpm/nmole). After incubation for 5 minutes at 37°C, the reaction was terminated by addition of 2 volumes (0.5 ml) ice cold acetone and the sample was allowed to deproteinize on ice for 10 minutes prior to centrifugation at 1,000 x g for 10 minutes. The deproteinized supernatant was adjusted to pH 3.5 with 2N formic acid and extracted with 2 volumes of ice cold ethyl acetate. The extracted samples were dried under argon, redissolved in ethyl acetate and applied to Whatman LK5D thin layer chromatography (TLC) plates which were developed using the A-9 solvent system [organic phase of ethyl acetate: […]:acetic acid: water (110:50:20:10)] described by Hamberg and Samuelsson, J. Biol. Chem., 241, 257-263 (1966). Arachidonic acid, 5-HETE, LTB₄ and PGD₂ were quantified with a Berthold LB 2832 autoscanner.
Under these conditions, only the 5-lipoxygenase pathway metabolites were detectable. The 5-HETE and di-HETEs were formed at a linear rate, and […] amounts of the arachidonic acid-1-¹⁴C substrate were utilized.

Series [3] can be described thus: Cytochrome P-450 inhibition (ethoxycoumarin-O-deethylase activity, phenobarbital-induced microsomes). Conditions: rat, liver microsomes. (Microsomes from liver hold many membrane-bound enzymes, among them those of drug oxidation.)
[4] abbreviates: LTB4 production by RBL-1 high speed supernatant.

As for `C[S+]([O-])c1ccc(-c2nc3n(c2-c2ccncc2)CCC3)cc1` (stereo not shown) [Compound 2, 2-(4-Methylsulfinylphenyl)-3-(4-pyridyl)-6,7-dihydro-[5H]-pyrrolo[1,2-a]imidazole], the chromatographic logD in series [1] is 0.85. Also, the IC50 (usually the point on the concentration scale where inhibition reaches its midpoint) in series [2] (setting [4]) is over 100 µM; in series [2] (total HETE and Di-HETE production by RBL-1 high speed supernatant) it was over 100 µM; in series [3], 866 µM.
For `CSc1ccc(-c2nc3n(c2-c2ccncc2)CCC3)cc1` [Compound 1, 2-(4-Methylthiophenyl)-3-(4-pyridyl)-6,7-dihydro-[5H]-pyrrolo[1,2-a]imidazole], the chromatographic logD in series [1] worked out at 2.68. Further, the 50% inhibitory concentration (IC50) in series [2] (setting [4]) came out at 20 µM; in series [3], 43.7 µM.
